Assay results: ChEMBL document CHEMBL3739329, “Synthesis and biological evaluation of nitric oxide-releasing hybrids from gemcitabine and phenylsulfonyl furoxans as anti-tumor agents” (Medchemcomm, 2015)
The source made the active and inactive calls. The rule behind the calls is not given here.

Assays:
[1] = Cytotoxicity against human HCT116 cells assessed as inhibition of cell proliferation after 48 hrs by MTT assay; type: functional, cell-based; conditions: HCT-116, 48 h
[2] = test system: A549; assay: Cytotoxicity against human A549 cells assessed as inhibition of cell proliferation after 48 hrs by MTT assay; type: functional, cell-based; conditions: A549, 48 h
[3] = Cytotoxicity against human SW620 cells assessed as inhibition of cell proliferation after 48 hrs by MTT assay; type: functional, cell-based; conditions: SW-620, 48 h
[4] = Cytotoxicity against human SGC7901 cells assessed as inhibition of cell proliferation after 48 hrs by MTT assay; type: functional, cell-based; conditions: SGC-7901, 48 h
[5] = test system: HepG2; assay: Cytotoxicity against human HepG2 cells assessed as inhibition of cell proliferation after 48 hrs by MTT assay; type: functional, cell-based; conditions: HepG2, 48 h
[6] = test system: HepG2; assay: Induction of apoptosis in human HepG2 cells assessed as reduction in PARP-1 protein level at 0.5 to 2 uM incubated for 48 hrs by Western blot analysis; type: functional, cell-based
[7] = test system: HepG2; assay: Induction of nitric oxide release in human HepG2 cells incubated for 24 hrs by DAF-FM DA staining-based flow cytometric analysis; type: functional, cell-based
[8] = test system: HepG2; assay: Induction of apoptosis in human HepG2 cells incubated for 48 hrs by FITC-Annexin V/PI staining-based flow cytometric analysis; type: functional, cell-based
[9] = test system: HepG2; assay: Cytotoxicity against human HepG2 cells assessed as inhibition of cell proliferation at 2 to 4 uM after 48 hrs in presence of haemoglobin; type: functional, cell-based
[10] = test system: HepG2; assay: Induction of apoptosis in human HepG2 cells at 2 uM incubated for 48 hrs by FITC-Annexin V/PI staining-based flow cytometric analysis; type: functional
[11] = test system: HepG2; assay: Induction of NO production in human HepG2 cells at 100 uM incubated for 24 hrs by Griess assay; type: functional, cell-based
[12] = test system: HepG2; assay: Induction of apoptosis in human HepG2 cells assessed as reduction in Bcl-2 protein level incubated for 48 hrs by Western blot analysis; type: functional, cell-based
[13] = test system: SW-620; assay: Induction of nitric oxide release in human SW620 cells incubated for 24 hrs by DAF-FM DA staining-based flow cytometric analysis; type: functional, cell-based
[14] = test system: HepG2; assay: Induction of apoptosis in human HepG2 cells assessed as increase in Bax protein level incubated for 48 hrs by Western blot analysis; type: functional, cell-based
[15] = test system: HepG2; assay: Cytotoxicity against human HepG2 cells assessed as inhibition of cell proliferation at 0.5 to 50 uM after 48 hrs in presence of dipyridamole by MTT assay; type: functional, cell-based
[16] = Cytotoxicity against human LO2 cells assessed as inhibition of cell proliferation after 48 hrs by MTT assay; type: cell-based; conditions: l02, 48 h
[17] = test system: SW-620; assay: Induction of nitrite/nitrate production in human SW620 cells at 100 uM incubated for 24 hrs by Griess assay; type: functional, cell-based
[18] = test system: HCT-116; assay: Induction of nitric oxide release in human HCT116 cells incubated for 24 hrs by DAF-FM DA staining-based flow cytometric analysis; type: functional, cell-based
[19] = test system: HepG2; assay: Induction of apoptosis in human HepG2 cells assessed as reduction in PARP-1 protein level at 2 uM incubated for 48 hrs by Western blot analysis; type: functional, cell-based
[20] = test system: HepG2; assay: Induction of apoptosis in human HepG2 cells assessed as increase in activated caspase-3 protein level at 0.5 to 2 uM incubated for 48 hrs by Western blot analysis; type: functional, cell-based
[21] = test system: HCT-116; assay: Induction of NO production in human HCT116 cells at 100 uM incubated for 24 hrs by Griess assay; type: functional, cell-based
[22] = test system: SW-620; assay: Induction of nitric oxide release in human SW620 cells at 6 uM incubated for 24 hrs by DAF-FM DA staining-based flow cytometric analysis; type: functional, cell-based
[23] = test system: HepG2; assay: Induction of nitric oxide release in human HepG2 cells at 6 uM incubated for 24 hrs by DAF-FM DA staining-based flow cytometric analysis; type: functional, cell-based
[24] = test system: HCT-116; assay: Induction of nitric oxide release in human HCT116 cells at 6 uM incubated for 24 hrs by DAF-FM DA staining-based flow cytometric analysis; type: functional, cell-based

Row | SMILES | IC50 [1] [µM] | IC50 [2] [µM] | IC50 [3] [µM] | IC50 [4] [µM] | IC50 [5] [µM] | Activity [11] | Activity [17] | Activity [21] | also measured
1 | O=C(CCC(=O)OCCCCCOc1no[n+]([O-])c1S(=O)(=O)c1ccccc1)Nc1ccn([C@@H]2O[C@H](CO)[C@@H](O)C2(F)F)c(=O)n1 | 11.3 | > 12.5 | 9.67 | 10.5 | > 12.5 |  |  |  | 
2 | O=C(CCC(=O)Nc1ccn([C@@H]2O[C@H](CO)[C@@H](O)C2(F)F)c(=O)n1)NCCCCCOc1no[n+]([O-])c1S(=O)(=O)c1ccccc1 | > 12.5 | > 12.5 | > 12.5 | 11.8 | 10.7 |  |  |  | 
3 | O=C(O)CCC(=O)OCC#CCOc1no[n+]([O-])c1S(=O)(=O)c1ccccc1 | 9.86 | > 12.5 | 9.09 | 11.5 | 8.73 |  |  |  | 
4 | O=C(CCC(=O)OCC#CCOc1no[n+]([O-])c1S(=O)(=O)c1ccccc1)Nc1ccn([C@@H]2O[C@H](CO)[C@@H](O)C2(F)F)c(=O)n1 | 1.19 | 3.27 | 1.3 | 1.36 | 1.02 | Active | Active | Active | Activity [6]: Active; Activity [7]: Dose-dependent effect; Activity [8]: Active; Activity [9]: inactive; Activity [10]: 78.3%; Activity [12]: Dose-dependent effect; Activity [13]: Dose-dependent effect; Activity [14]: Dose-dependent effect; Activity [15]: Active; Activity [16]: Non-toxic; Activity [18]: Dose-dependent effect; Activity [19]: Active; Activity [20]: Active
5 | CCOC(=O)N1CCN(/[N+]([O-])=N/Oc2ccc([N+](=O)[O-])cc2[N+](=O)[O-])CC1 | 3.75 |  | 5.16 |  | 7.42 |  |  |  | Activity [22]: Active; Activity [23]: Active; Activity [24]: Active
6 | CN(CCOc1no[n+]([O-])c1S(=O)(=O)c1ccccc1)C(=O)CCC(=O)Nc1ccn([C@@H]2O[C@H](CO)[C@@H](O)C2(F)F)c(=O)n1 | 10.8 | 10.1 | 5.21 | 5.85 | 8.39 |  |  |  | 
7 | O=C(CCC(=O)OCCOc1no[n+]([O-])c1S(=O)(=O)c1ccccc1)Nc1ccn([C@@H]2O[C@H](CO)[C@@H](O)C2(F)F)c(=O)n1 | 10.3 | > 12.5 | > 12.5 | > 12.5 | > 12.5 |  |  |  | 
8 | O=C(CCC(=O)Nc1ccn([C@@H]2O[C@H](CO)[C@@H](O)C2(F)F)c(=O)n1)NCCCCOc1no[n+]([O-])c1S(=O)(=O)c1ccccc1 | 3.06 | 6.04 | 4.35 | 5.1 | 3.22 | Active | Active | Active | 
9 | O=C(CCC(=O)Nc1ccn([C@@H]2O[C@H](CO)[C@@H](O)C2(F)F)c(=O)n1)NCCCOc1no[n+]([O-])c1S(=O)(=O)c1ccccc1 | 4.1 | 8.9 | 4.97 | 6.71 | 6.18 | Active | Active | Active | 
10 | O=C(CCC(=O)OCCCOc1no[n+]([O-])c1S(=O)(=O)c1ccccc1)Nc1ccn([C@@H]2O[C@H](CO)[C@@H](O)C2(F)F)c(=O)n1 | 6.89 | 9.92 | 5 | 9.26 | 5.32 | Active | Active | Active | 
11 | O=C(CCC(=O)OCCOCCOc1no[n+]([O-])c1S(=O)(=O)c1ccccc1)Nc1ccn([C@@H]2O[C@H](CO)[C@@H](O)C2(F)F)c(=O)n1 | 7.86 | 11.5 | > 12.5 | 10.7 | 7.05 |  |  |  | 
12 | O=C(CCC(=O)OCCCCOc1no[n+]([O-])c1S(=O)(=O)c1ccccc1)Nc1ccn([C@@H]2O[C@H](CO)[C@@H](O)C2(F)F)c(=O)n1 | 3.57 | 5.18 | 2.49 | 6.13 | 2.44 | Active | Active | Active | 
13 | Nc1ccn([C@@H]2O[C@H](CO)[C@@H](O)C2(F)F)c(=O)n1 [GEMCITABINE] | 7.33 | 2.69 | 5.62 | 3.58 | 2.97 | inactive | inactive | inactive | Activity [10]: Active; Activity [15]: inactive; Activity [19]: Active
14 | CC(CCOC(=O)CCC(=O)Nc1ccn([C@@H]2O[C@H](CO)[C@@H](O)C2(F)F)c(=O)n1)Oc1no[n+]([O-])c1S(=O)(=O)c1ccccc1 (stereo partly drawn) | 4.69 | 7.82 | 3.98 | 7.44 | 3.25 | Active | Active | Active | 
15 | O=C(CCC(=O)Nc1ccn([C@@H]2O[C@H](CO)[C@@H](O)C2(F)F)c(=O)n1)NCCOc1no[n+]([O-])c1S(=O)(=O)c1ccccc1 | > 12.5 | > 12.5 | 9.16 | 9.92 | 10.5 |  |  |  | 
16 | O=C(CCC(=O)Oc1ccc(CCOc2no[n+]([O-])c2S(=O)(=O)c2ccccc2)cc1)Nc1ccn([C@@H]2O[C@H](CO)[C@@H](O)C2(F)F)c(=O)n1 | 8.78 | > 12.5 | > 12.5 | > 12.5 | 9.21 |  |  |  | 
